Reference: US20140135270A1, “MACROCYCLIC COMPOUNDS FOR INHIBITION OF INHIBITORS OF APOPTOSIS” (Ensemble Therapeutics Corp., priority 2012, published 2014)

Legend:
[1] = target: T1, His-BIR2-3 (125-356, C202A/C213G, XIAP) (Homo sapiens, UniProt P98170, C202A/C213G); experiment: XIAP-BIR2-3 Dimeric SMAC Peptide Homogeneous Time Resolved Fluorescence (HTRF) Assay; format: binding; settings: fluorescein labeled dimeric SMAC peptide
T1 construct: additions of His-BIR2-3 (125-356, C202A/C213G, XIAP), fluorescein labeled dimeric SMAC peptide

His-BIR3 (241-356, XIAP) = target: T2, His-BIR3 (241-356, XIAP) (Homo sapiens, UniProt P98170); experiment: XIAP-BIR3/SMAC Homogeneous Time Resolved Fluorescence (HTRF) Assay; format: binding; settings: fluorescein labeled SMAC peptide
T2 construct: additions of His-BIR3 (241-356, XIAP), fluorescein labeled SMAC peptide
T2 sequence (P98170 241-356): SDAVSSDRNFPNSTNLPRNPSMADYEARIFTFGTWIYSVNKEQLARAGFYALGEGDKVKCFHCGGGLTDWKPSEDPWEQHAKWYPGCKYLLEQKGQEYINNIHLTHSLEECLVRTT

T1 sequence (P98170 125-356 C202A/C213G): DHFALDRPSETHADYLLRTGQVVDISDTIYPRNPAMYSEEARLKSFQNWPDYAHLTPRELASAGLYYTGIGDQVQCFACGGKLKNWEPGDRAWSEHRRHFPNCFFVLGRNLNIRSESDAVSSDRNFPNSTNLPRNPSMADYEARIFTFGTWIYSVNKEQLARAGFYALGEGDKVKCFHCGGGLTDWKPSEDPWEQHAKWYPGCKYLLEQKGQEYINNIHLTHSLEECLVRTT

SMILES	IC50 [1] [nM]	IC50 (His-BIR3 (241-356, XIAP)) [nM]
CN[C@@H](C)C(=O)N[C@H](C(=O)N1C[C@@H]2C[C@H]1C(=O)N[C@@H](Cc1ccc3ccccc3c1)C(=O)N[C@H](C(=O)NS(=O)(=O)C1CC1)Cc1ccc(cc1)OCc1cn(nn1)[C@H]1C[C@@H](C(=O)N[C@@H](Cc3ccc4ccccc4c3)C(=O)N[C@H](C(=O)O)Cc3ccc(cc3)OC/C=C/CO2)N(C(=O)[C@@H](NC(=O)[C@H](C)NC)C(C)(C)C)C1)C1CCCCC1 [Example 108]	7.8	90.3
CN[C@@H](C)C(=O)N[C@H](C(=O)N1C[C@@H]2C[C@H]1C(=O)N[C@@H](Cc1ccc3ccccc3c1)C(=O)N[C@H](C(=O)O)Cc1ccc(cc1)OC/C=C/CO[C@H]1C[C@@H](C(=O)N[C@@H](Cc3ccc4ccccc4c3)C(=O)N[C@H](C(=O)NS(=O)(=O)c3ccccn3)Cc3ccc(cc3)OCc3cn2nn3)N(C(=O)[C@@H](NC(=O)[C@H](C)NC)C(C)(C)C)C1)C(C)(C)C [Example 118]	1.8	6.3
CN[C@@H](C)C(=O)N[C@H](C(=O)N1C[C@@H]2C[C@H]1C(=O)N[C@@H](Cc1ccc3ccccc3c1)C(=O)N[C@H](C(=O)O)Cc1ccc(cc1)OCCCCO[C@H]1C[C@@H](C(=O)N[C@@H](Cc3ccc4ccccc4c3)C(=O)N[C@H](C(=O)NS(=O)(=O)c3ccccn3)Cc3ccc(cc3)OCc3cn2nn3)N(C(=O)[C@@H](NC(=O)[C@H](C)NC)C(C)(C)C)C1)C(C)(C)C [Example 125]	2.7	3.7
CC[C@H](NC(=O)[C@H](C)NC)C(=O)N1C[C@@H]2C[C@H]1C(=O)N[C@@H](Cc1c[nH]c3ccccc13)C(=O)N[C@H](C(=O)O)Cc1ccc(cc1)C(=O)N[C@H]1C[C@@H](C(=O)N[C@@H](Cc3ccc4ccccc4c3)C(=O)N[C@H](C(=O)O)Cc3ccc(cc3)OC/C=C/CO2)N(C(=O)[C@@H](NC(=O)[C@H](C)NC)C(C)(C)C)C1 [Example 47]	6.3	41.8
CN[C@@H](C)C(=O)N[C@H](C(=O)N1C[C@@H]2C[C@H]1C(=O)N[C@@H](Cc1ccc3ccccc3c1)C(=O)N[C@H](C(=O)O)Cc1ccc(cc1)C(=O)N[C@H]1C[C@@H](C(=O)N[C@@H](Cc3ccc4ccccc4c3)C(=O)N[C@H](C(=O)O)Cc3ccc(cc3)OC/C=C/CO2)N(C(=O)[C@@H](NC(=O)[C@H](C)NC)C(C)(C)C)C1)C1CCOCC1 [Example 66]	1.3	5.2
CN[C@@H](C)C(=O)N[C@H](C(=O)N1C[C@@H]2C[C@H]1C(=O)N[C@@H](Cc1ccc3ccccc3c1)C(=O)N[C@H](C(=O)O)Cc1ccc(cc1)OC/C=C/CO[C@H]1C[C@@H](C(=O)N[C@@H](Cc3ccc4ccccc4c3)C(=O)N[C@H](C(=O)NS(=O)(=O)C3CC3)Cc3ccc(cc3)OCc3cn2nn3)N(C(=O)[C@H](NC(=O)[C@H](C)NC)[C@@H](C)O)C1)C(C)(C)C [Example 111]	2.6	34.1
CN[C@@H](C)C(=O)N[C@H](C(=O)N1CC[C@@H]2OC/C=C/COc3ccc(cc3)C[C@@H](C(=O)O)NC(=O)[C@H](Cc3ccc4ccccc4c3)NC(=O)[C@@H]3[C@H](CCN3C(=O)[C@@H](NC(=O)[C@H](C)NC)C(C)(C)C)OCc3cn(nn3)[C@H](C(=O)NS(C)(=O)=O)CCCNC(=O)[C@H](Cc3ccc4ccccc4c3)NC(=O)[C@H]21)C(C)(C)C [Example 18]	1.8	5.8
CN[C@@H](C)C(=O)N[C@@H](CC(=O)O)C(=O)N1C[C@@H]2C[C@H]1C(=O)N[C@@H](Cc1ccc3ccccc3c1)C(=O)N[C@H](C(=O)O)CCC(=O)N[C@H]1C[C@@H](C(=O)N[C@@H](Cc3ccc4ccccc4c3)C(=O)N[C@H](C(=O)O)Cc3ccc(cc3)OC/C=C/CO2)N(C(=O)[C@@H](NC(=O)[C@H](C)NC)C(C)(C)C)C1 [Example 58]	138	757
CN[C@@H](C)C(=O)N[C@H](C(=O)N1CCC2[C@H]1C(=O)N[C@@H](Cc1ccc3ccccc3c1)C(=O)N[C@H](C(=O)O)Cc1ccc(cc1)OC/C=C/CO[C@H]1C[C@@H](C(=O)N[C@@H](Cc3ccc4ccccc4c3)C(=O)N[C@H](C(=O)O)Cc3ccc(cc3)OCc3cn2nn3)N(C(=O)[C@@H](NC(=O)[C@H](C)NC)C(C)(C)C)C1)C(C)(C)C (stereo partly drawn) [Example 13]	12.4	5.4
CN[C@@H](C)C(=O)N[C@H](C(=O)N1C[C@@H]2C[C@H]1C(=O)N[C@@H](Cc1ccc3ccccc3c1)C(=O)N[C@H](C(=O)O)Cc1ccc(cc1)OCc1cn(nn1)[C@H]1C[C@@H](C(=O)N[C@@H](Cc3ccc4ccccc4c3)C(=O)N[C@H](C(=O)NS(=O)(=O)C3CC3)Cc3ccc(cc3)OCCCCO2)N(C(=O)[C@@H](NC(=O)[C@H](C)NC)C(C)(C)C)C1)C(C)(C)C [Example 123]	5.4	7.8
CC[C@H](NC(=O)[C@H](C)NC)C(=O)N1C[C@@H]2C[C@H]1C(=O)N[C@@H](Cc1ccc3ccccc3c1)C(=O)N[C@H](C(=O)NS(=O)(=O)C1CC1)Cc1ccc(cc1)OCc1cn(nn1)[C@H]1C[C@@H](C(=O)N[C@@H](Cc3ccc4ccccc4c3)C(=O)N[C@H](C(=O)O)Cc3ccc(cc3)OC/C=C/CO2)N(C(=O)[C@@H](NC(=O)[C@H](C)NC)C(C)(C)C)C1 [Example 107]	1.7	26.1
CN[C@@H](C)C(=O)N[C@H](C(=O)N1C[C@@H]2C[C@H]1C(=O)N[C@@H](Cc1ccc3ccccc3c1)C(=O)N[C@H](C(=O)O)Cc1ccc(cc1)OCc1cn(nn1)[C@H]1C[C@@H](C(=O)N[C@@H](Cc3ccc4ccccc4c3)C(=O)N[C@H](c3nnn[nH]3)Cc3ccc(cc3)OCCCCO2)N(C(=O)[C@@H](NC(=O)[C@H](C)NC)C(C)(C)C)C1)C(C)(C)C [Example 128]	3.3	5.5
CC(C)[C@H](NC(=O)[C@H](C)N(C)C(=O)OC(C)(C)C)C(=O)N[C@H]1C/C=C/CC[C@@H](C(=O)O)NC(=O)[C@H](Cc2ccccc2)NC(=O)[C@@H]2CN(CCNC(=O)CC[C@@H](C(=O)OC(C)(C)C)NC(=O)[C@H](Cc3ccccc3)NC1=O)CCN2C(=O)[C@@H](NC(=O)[C@H](C)N(C)C(=O)OC(C)(C)C)C(C)C [Example 82]	2090	1100
CN[C@@H](C)C(=O)N[C@H](C(=O)N1C[C@H]2C/C=C/COc3ccc(cc3)C[C@@H](C(=O)O)NC(=O)[C@H](Cc3ccc4ccccc4c3)NC(=O)[C@@H]3C[C@@H](CN3C(=O)[C@@H](NC(=O)[C@H](C)NC)C(C)(C)C)NC(=O)c3ccc(cc3)C[C@@H](C(=O)O)NC(=O)C(Cc3ccc4ccccc4c3)NC(=O)[C@@H]1C2)C(C)(C)C (stereo partly drawn) [Example 28]	1.1	3.5
CN[C@@H](C)C(=O)N[C@H](C(=O)N1C[C@@H]2C[C@H]1C(=O)N[C@@H](Cc1ccc3ccccc3c1)C(=O)N[C@H](C(=O)O)Cc1ccc(cc1)OC/C=C/CO[C@H]1C[C@@H](C(=O)N[C@@H](Cc3ccc(-c4ccccc4)cc3)C(=O)N[C@H](C(=O)O)Cc3ccc(cc3)C(=O)N2)N(C(=O)[C@@H](NC(=O)[C@H](C)NC)C(C)(C)C)C1)C(C)(C)C [Example 48]	2.6	17.6
CNC(C)C(=O)NC(C(=O)N1CC2CCCCOc3ccc(cc3)CC(C(=O)NS(=O)(=O)CCCNC(C)=O)NC(=O)C(Cc3ccc4ccccc4c3)NC(=O)C3CC(CN3C(=O)C(NC(=O)C(C)NC)C(C)(C)C)n3cc(nn3)COc3ccc(cc3)CC(C(=O)O)NC(=O)C(Cc3ccc4ccccc4c3)NC(=O)C1C2)C(C)(C)C (stereo not drawn) [Example 27]	2.7	3.5
CN[C@@H](C)C(=O)N[C@H](C(=O)N1C[C@@H]2C[C@H]1C(=O)N[C@@H](Cc1ccc3ccccc3c1)C(=O)N[C@H](C(=O)O)Cc1ccc(cc1)OCCCC[C@H]1C[C@@H](C(=O)N[C@@H](Cc3ccc4ccccc4c3)C(=O)N[C@H](C(=O)NS(=O)(=O)C3CC3)Cc3ccc(cc3)OCc3cn2nn3)N(C(=O)[C@@H](NC(=O)[C@H](C)NC)C(C)(C)C)C1)C(C)(C)C [Example 87]	1.3	2.4
CN[C@@H](C)C(=O)N[C@H](C(=O)N1C[C@@H]2C[C@H]1C(=O)NC(Cc1ccc3ccccc3c1)C(=O)N[C@H](C(=O)NS(=O)(=O)C1CC1)Cc1ccc(cc1)OCCCC[C@H]1C[C@@H](C(=O)N[C@@H](Cc3ccc4ccccc4c3)C(=O)N[C@H](C(=O)NS(=O)(=O)C3CC3)Cc3ccc(cc3)OCc3cn2nn3)N(C(=O)[C@@H](NC(=O)[C@H](C)NC)C(C)(C)C)C1)C(C)(C)C (stereo partly drawn) [Example 100]	4.2	4.6
CNC(C)C(=O)NC(C(=O)N1CC2CC1C(=O)NC(Cc1ccc3ccccc3c1)C(=O)NC(C(=O)O)Cc1ccc(cc1)OCC=CCOC1CC(C(=O)NC(Cc3ccc4ccccc4c3)C(=O)NC(C(=O)O)CCCCC(=O)N2)N(C(=O)C(NC(=O)C(C)NC)C(C)(C)C)C1)C(C)(C)C (stereo not drawn) [Example 31]	2.1	5.8
CN[C@@H](C)C(=O)N[C@H](C(=O)N1C[C@@H]2C[C@H]1C(=O)N[C@@H](Cc1ccc3ccccc3c1)C(=O)N[C@H](C(=O)O)Cc1ccc(cc1)OC/C=C/CO[C@H]1C[C@@H](C(=O)N[C@@H](C(c3ccccc3)c3ccccc3)C(=O)N[C@H](C(=O)O)Cc3ccc(cc3)C(=O)N2)N(C(=O)[C@@H](NC(=O)[C@H](C)NC)C(C)(C)C)C1)C(C)(C)C [Example 62]	8	60.2
CN[C@@H](C)C(=O)N[C@H](C(=O)N[C@H]1C/C=C\CC[C@@H](C(=O)O)NC(=O)[C@H](Cc2ccc3ccccc3c2)NC(=O)[C@@H]2CN(CCN2C(=O)[C@@H](NC(=O)[C@H](C)NC)C(C)(C)C)C(=O)CNC(=O)CC[C@@H](C(=O)O)NC(=O)[C@H](Cc2ccc3ccccc3c2)NC1=O)C(C)(C)C [Example 76]	14.6	293
